Here are results for one compound from US20230233453A1, “SUXAMETHONIUM COMPOSITION AND PREFILLED SYRINGE THEREOF” (LABORATOIRE AGUETTANT, priority 2020, published 2023).

Molecules are shown by their SMILES.

The nature of series [1]: Degradation of suxamethonium depending on pH. The format is physicochemical. Conditions: pH 5.0 vs pH 3.5.
The nature of series [2]: Sensitivity of suxamethonium to oxidizing conditions. The format is physicochemical.

Turning to `C[N+](C)(C)CCOC(=O)CCC(=O)OCC[N+](C)(C)C` [suxamethonium], in series [1], the “degradation depending on pH” value is listed as “faster at pH 5.0 than at pH 3.5”. For the same compound, the “sensitivity to oxidizing conditions” value in series [2] is recorded as “not sensitive to oxidizing conditions”.
